Laboratory results published in ChEMBL document CHEMBL3244064, “Conformational effects on the activity of drugs. 7. Synthesis and pharmacological properties of 2-(p-nitrophenyl)-substituted morpholines” (J Med Chem, 1979).
Activity calls are given as the source filed them. The rule behind the calls is not given here.

How the values were obtained:
Assay type in all cases: protein assay
[1] = target: T1, Adrenergic receptor alpha (Rattus norvegicus) (UniProt P15823+P23944+P43140+P22086+P19328+P22909); experiment: Stimulation of alpha-adrenergic receptor in ICEM:CER SPF Caw rat vas deferens assessed as muscle contraction after 2 to 3 mins relative to norepinephrine
[2] = target: T1, Adrenergic receptor alpha (Rattus norvegicus); experiment: Stimulation of alpha-adrenergic receptor in ICEM:CER SPF Caw rat vas deferens assessed as potentiation of norepinephrine response at 50 uM after 2 to 3 mins
[3] = target: T1, Adrenergic receptor alpha (Rattus norvegicus); experiment: Stimulation of alpha-adrenergic receptor in reserpine-pretreated ICEM:CER SPF Caw rat vas deferens assessed as muscle contraction after 2 to 3 mins
[4] = target: T1, Adrenergic receptor alpha (Rattus norvegicus); experiment: Stimulation of alpha-adrenergic receptor in ICEM:CER SPF Caw rat vas deferens assessed as muscle contraction after 2 to 3 mins in presence of alpha-adrenoceptor blocker dihydroergotamine
[5] = target: T1, Adrenergic receptor alpha (Rattus norvegicus); experiment: Stimulation of alpha-adrenergic receptor in ICEM:CER SPF Caw rat vas deferens assessed as muscle contraction after 2 to 3 mins relative to INPEA

Row | SMILES | Ratio [1] | Activity [2] [%] | Activity [3] | Activity [4] | Ratio [5]
1 | CC(C)NCC(O)c1ccc([N+](=O)[O-])cc1 (stereo not drawn) | 0.0045 | 209 | Active | inactive | –
2 | CN1CCOC(c2ccc([N+](=O)[O-])cc2)C1 (stereo not drawn) | 0.0014 | 192 | – | inactive | 0.31
3 | CC(C)(C)NCC(O)c1ccc([N+](=O)[O-])cc1 (stereo not drawn) | 0.0012 | 127 | – | inactive | 0.27
4 | CNCC(O)c1ccc([N+](=O)[O-])cc1 (stereo not drawn) | 0.0047 | 253 | – | inactive | 1.04
5 | CC(C)(C)N1CCOC(c2ccc([N+](=O)[O-])cc2)C1 (stereo not drawn) | 0.0029 | 169 | – | inactive | 0.64
6 | CC(C)N1CCOC(c2ccc([N+](=O)[O-])cc2)C1 (stereo not drawn) | 0.0045 | 223 | Active | inactive | 1
7 | NCC(O)c1ccc([N+](=O)[O-])cc1 (stereo not drawn) | 0.0075 | 179 | – | inactive | 1.66
8 | O=[N+]([O-])c1ccc(C2CNCCO2)cc1 (stereo not drawn) | 0.0063 | 203 | – | inactive | 1.4
